Among the test systems are HOP-92 NSCLC; KM12 colon; NCI-H23 lung; RXF 393 renal; SF-268 CNS; SF-295 CNS; SN12C renal; U251 CNS; MDA-MB-231 breast; BT-549 breast.
Holding throughout (assay): DTP human tumour cell line panel, 48 h

Among the data in PubChem BioAssay (NCI) are TGI and GI50 values, retold here.

In general, TGI refers to the concentration at which net growth stops. One may read the GI50 as the concentration at which growth is held to half of that of the control.

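Compound exposure: 48 hours, 5 concentrations, 96-well plates. GI50 = concentration required for 50% inhibition of growth. Definition used: TGI = concentration required for complete inhibition of growth.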

As for `CCc1cccc(CC)c1NC1=CC(=O)C(=O)c2ccccc21`, the TGI with HOP-92 NSCLC turned out to be 29.6 µM; with KM12 colon it was 33.2 µM; in the assay with NCI-H23 lung, 3.02 µM; in the assay with RXF 393 renal, 45.2 µM; in the assay with SF-268 CNS it was 72.5 µM; in the assay with SF-295 CNS, 28.3 µM. Besides, the figures for the TGI with SN12C renal and with U251 CNS were 76.5 µM and 36.6 µM, respectively.
For the compound `O=C(Nc1cc(Cl)ccc1Cl)c1cc2ccccc2oc1=O`, the TGI with KM12 colon, in the assay on NCI-H23 lung, in the assay on RXF 393 renal, in the assay on SF-295 CNS, in the assay with SN12C renal and with U251 CNS was more than 100 µM each time.
With `N=C(N)c1ccc(-c2ccc(-c3cccs3)s2)cc1F`, the GI50 with HOP-92 NSCLC was 0.576 µM; in the assay with KM12 colon, 1.01 µM; in the assay on MDA-MB-231 breast, 1.16 µM; with NCI-H23 lung, 1.63 µM; in the assay with RXF 393 renal, 1.25 µM; in the assay with SF-268 CNS, 1.65 µM. Besides, the results for the GI50 with SF-295 CNS, with SN12C renal and in the assay on U251 CNS were 0.39 µM, 1.63 µM and 1.33 µM, respectively. Further, the TGI with HOP-92 NSCLC stood at 2.21 µM; in the assay with KM12 colon, 2.38 µM; in the assay on MDA-MB-231 breast, 2.93 µM; with NCI-H23 lung, 3.27 µM; with RXF 393 renal, 2.64 µM; in the assay with SF-268 CNS it was 3.37 µM. Also, the TGI in the assay with SF-295 CNS was found to be 1.78 µM; in the assay with SN12C renal it was 3.69 µM; with U251 CNS, 2.8 µM.
`CC(=O)NNc1nc(C)c(C(=O)NNC(=O)C(=O)Nc2ccc(C)cc2[N+](=O)[O-])s1`: the TGI in the assay with HOP-92 NSCLC, in the assay on KM12 colon, with NCI-H23 lung, in the assay on RXF 393 renal, in the assay on SF-268 CNS and with SF-295 CNS was more than 100 µM in each case. Also, the TGI in the assay on SN12C renal and in the assay with U251 CNS was more than 100 µM throughout.
For `BrC(/C=N/Nc1nnc(-c2ccccc2)c(-c2ccccc2)n1)C(Br)c1ccccc1` (stereo not drawn), the TGI in the assay with HOP-92 NSCLC is 64.5 µM; in the assay on KM12 colon it was more than 100 µM; in the assay on NCI-H23 lung, more than 100 µM; in the assay with RXF 393 renal, more than 100 µM; in the assay on SF-268 CNS it was more than 100 µM; in the assay on SF-295 CNS, more than 100 µM. The TGI in the assay on SN12C renal and in the assay on U251 CNS was more than 100 µM throughout.
`Cc1c(Cl)ccc2[s+]snc12`: the TGI in the assay on KM12 colon was more than 100 µM; in the assay on NCI-H23 lung, more than 100 µM; in the assay on RXF 393 renal, 37.2 µM; in the assay with SF-268 CNS, 62.8 µM; with SF-295 CNS, more than 100 µM; with SN12C renal, 57.3 µM. Besides, in the assay on U251 CNS, the total growth inhibition concentration (TGI) amounted to 70.2 µM.
For `CC1(C)N=C(N)N=C(N)N1c1cccc(CC(=O)Nc2ccccc2)c1`, the GI50 with BT-549 breast is 45.1 µM; in the assay on KM12 colon, 15.1 µM; in the assay with MDA-MB-231 breast, more than 100 µM; in the assay on NCI-H23 lung, 14.8 µM; in the assay with RXF 393 renal, more than 100 µM; in the assay on SF-268 CNS, 1.35 µM. Further, the GI50 in the assay on SF-295 CNS was 30.6 µM; in the assay with SN12C renal, 4.84 µM; in the assay with U251 CNS it was 4.96 µM. The TGI with BT-549 breast, in the assay with KM12 colon, in the assay on MDA-MB-231 breast, in the assay on NCI-H23 lung, in the assay on RXF 393 renal and in the assay on SF-268 CNS was more than 100 µM each time. For the same compound, the TGI in the assay on SF-295 CNS, with SN12C renal and with U251 CNS was more than 100 µM throughout.
For the compound `COc1ccc2c(c1)c(-c1nc(-c3cn(C)c4ncccc34)cs1)cn2CCCCN1CCCCC1`, the GI50 with BT-549 breast is 1.64 µM; in the assay with HOP-92 NSCLC, 1.38 µM; with KM12 colon, 1.7 µM; with NCI-H23 lung it was 1.75 µM; in the assay with RXF 393 renal, 1.33 µM. Besides, the TGI in the assay with BT-549 breast was determined as 3.05 µM; with HOP-92 NSCLC, 2.76 µM; with KM12 colon, 3.15 µM; with NCI-H23 lung, 3.28 µM; in the assay with RXF 393 renal, 2.82 µM.
As to `Cc1cc2c(=O)cc(-c3ccncc3)oc2c(C(N)=O)c1C`, the concentration for total growth inhibition (TGI) in the assay on HOP-92 NSCLC, in the assay with NCI-H23 lung, with RXF 393 renal, in the assay with SF-268 CNS, in the assay on SF-295 CNS and in the assay on SN12C renal was more than 100 µM in each case. In addition, in the assay with U251 CNS, the TGI is more than 100 µM.
On to `N/C(=N\O)c1cn(C2OC(CO)C(O)C2O)c2ncnc(N)c12` (stereo not drawn), for which the concentration for 50% growth inhibition (GI50) was 0.311 µM in the assay on BT-549 breast; 0.188 µM in the assay with KM12 colon; 0.197 µM in the assay on MDA-MB-231 breast; 0.229 µM in the assay with NCI-H23 lung; 0.169 µM in the assay with RXF 393 renal; 0.105 µM in the assay on SF-268 CNS. The GI50 is 0.275 µM in the assay on SF-295 CNS, 0.152 µM in the assay on SN12C renal and 0.185 µM in the assay on U251 CNS. Moreover, the TGI in the assay on BT-549 breast was 17.7 µM; in the assay with MDA-MB-231 breast it was 18.9 µM; in the assay with NCI-H23 lung, 5.18 µM; in the assay on RXF 393 renal, 0.722 µM; with SF-268 CNS, more than 21.5 µM; in the assay with SF-295 CNS, 7.3 µM. The TGI in the assay on SN12C renal is more than 36.1 µM; with U251 CNS it was more than 71.7 µM.
Regarding `Cc1nc2ccccc2c(=O)n1/N=C(\N=Nc1ccc(Cl)cc1)c1ccc(N(C)C)cc1`, the concentration for total growth inhibition (TGI) in the assay on NCI-H23 lung, in the assay with RXF 393 renal, with SF-268 CNS, with SF-295 CNS and in the assay on SN12C renal was more than 100 µM each time.
With `C#CC[C@]12CC(=O)CC[C@H]1CC1(C2)OCCO1`, the concentration for total growth inhibition (TGI) in the assay with KM12 colon, in the assay with RXF 393 renal, in the assay with SF-268 CNS, in the assay with SN12C renal and in the assay with U251 CNS was more than 100 µM throughout.
Take `CCCCP1(=O)C=CC(Cl)=C(C)C1` (stereo not drawn): the TGI with HOP-92 NSCLC, with KM12 colon, in the assay on NCI-H23 lung, with RXF 393 renal, with SF-268 CNS and in the assay with SF-295 CNS was more than 100 µM each time. The TGI in the assay on SN12C renal and in the assay with U251 CNS was more than 100 µM throughout.
`COc1cc(CC2c3cc(OC)c(OC)cc3CCN2C)c(C(=O)O)cc1OC` (stereo not drawn): the TGI with HOP-92 NSCLC, in the assay with KM12 colon, in the assay with NCI-H23 lung, in the assay with RXF 393 renal, with SF-268 CNS and in the assay on SF-295 CNS was more than 100 µM in each case. The TGI with SN12C renal and in the assay with U251 CNS was more than 100 µM throughout.
